Here are results for 22 compounds from US8440652B2, “MST1 kinase inhibitors and methods of their use” (Lexicon Pharmaceuticals, Inc., priority 2011, dated 2013).

Read-outs that look alike come from different tables or passages of the source. A value given as a limit tells only on which side of the number the result lay.

In this assay the target is T1, MST1 (Homo sapiens, UniProt Q13043).
T1 sequence (Q13043 1-487): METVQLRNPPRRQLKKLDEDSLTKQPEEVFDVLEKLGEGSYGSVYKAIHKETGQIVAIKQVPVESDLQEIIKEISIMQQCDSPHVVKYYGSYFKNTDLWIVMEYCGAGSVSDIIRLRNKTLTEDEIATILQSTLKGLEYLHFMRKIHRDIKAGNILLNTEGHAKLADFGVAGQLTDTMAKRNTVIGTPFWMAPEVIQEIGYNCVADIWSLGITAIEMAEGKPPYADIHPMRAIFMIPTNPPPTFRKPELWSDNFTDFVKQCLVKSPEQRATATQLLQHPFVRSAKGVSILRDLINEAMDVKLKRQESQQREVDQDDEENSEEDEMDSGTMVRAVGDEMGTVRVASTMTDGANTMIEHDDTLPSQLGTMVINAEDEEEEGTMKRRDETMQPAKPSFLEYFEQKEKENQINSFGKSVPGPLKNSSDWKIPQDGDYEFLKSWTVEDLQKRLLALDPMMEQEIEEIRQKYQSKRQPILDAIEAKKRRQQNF
The experiment in a line: In vitro measurement of MST1 inhibition (Z′-Lyte kinase assay). The assay is classed as biochemical.

Where [1] appears, read: 1 μM ATP, read-out: IC50 (μM) 1 μM ATP.
[2] abbreviates: 50 μM ATP, read-out: IC50 (μM) 50 μM ATP.

Broadly, the IC50 is the midpoint of a concentration-inhibition curve.

In the case of `[2H]C1([2H])CNC(=O)c2ccc(-c3nc(-c4ccc(S(=O)(=O)NC5CC5)cc4)cnc3N)cc21` [4-(5-amino-6-(4,4-dideutero-1-oxo-1,2,3,4-tetrahydroisoquinolin-6-yl)pyrazin-2-yl)-N-cyclopropylbenzenesulfonamide], the IC50 is, setting by setting: under setting [1], less than 0.01 µM; under setting [2], less than 0.01 µM.
Consider `CC1(C)C(=O)NC(=O)c2ccc(-c3nc(-c4ccc(S(=O)(=O)NC5CC5)cc4)cnc3N)cc21` [4-(5-amino-6-(4,4-dimethyl-1,3-dioxo-1,2,3,4-tetrahydroisoquinolin-6-yl)pyrazin-2-yl)-N-cyclopropylbenzenesulfonamide], for which the IC50 is, setting by setting: under setting [1], less than 0.15 µM; under setting [2], less than 0.15 µM.
As for `Cc1cc(-c2cnc(N)c(-c3ccc4c(c3)C(C)(C)CNC4=O)n2)ccc1S(=O)(=O)NC1CC1` [4-(5-amino-6-(4,4-dimethyl-1-oxo-1,2,3,4-tetrahydroisoquinolin-6-yl)pyrazin-2-yl)-N-cyclopropyl-2-methylbenzenesulfonamide], the IC50 runs as follows: under setting [1], less than 0.01 µM; under setting [2], less than 0.01 µM.
As for `CN(C1CC1)S(=O)(=O)c1ccc(-c2cnc(N)c(-c3ccc4c(c3)C(C)(C)CNC4=O)n2)cc1` [4-(5-amino-6-(4,4-dimethyl-1-oxo-1,2,3,4-tetrahydroisoquinolin-6-yl)pyrazin-2-yl)-N-cyclopropyl-N-methylbenzenesulfonamide], the IC50 is, setting by setting: under setting [1], less than 0.01 µM; under setting [2], less than 0.01 µM.
On to `CC1(C)CNC(=O)c2ccc(-c3nc(-c4ccc(S(=O)(=O)NC5CC5)cc4)cnc3N)cc21` [4-(5-amino-6-(4,4-dimethyl-1-oxo-1,2,3,4-tetrahydroisoquinolin-6-yl)pyrazin-2-yl)-N-cyclopropylbenzenesulfonamide], for which the IC50 under setting [1] was less than 0.01 µM and the IC50 under setting [2] is less than 0.01 µM.
`CN(C1CC1)S(=O)(=O)c1ccc(-c2cnc(N)c(-c3ccc4c(O)ncc(Br)c4c3)n2)cc1` [4-(5-amino-6-(4-bromo-1-hydroxyisoquinolin-6-yl)pyrazin-2-yl)-N-cyclopropyl-N-methylbenzenesulfonamide]: the half-inhibitory concentration (IC50) runs as follows: under setting [1], less than 0.01 µM; under setting [2], less than 0.01 µM.
Take `CN(C1CC1)S(=O)(=O)c1ccc(-c2cnc(N)c(-c3ccc4c(c3)NCCNC4=O)n2)cc1` [4-(5-amino-6-(5-oxo-2,3,4,5-tetrahydro-1H-benzo[e][1,4]diazepin-8-yl)pyrazin-2-yl)-N-cyclopropyl-N-methylbenzenesulfonamide]: the IC50 is less than 0.01 µM under setting [1] and less than 0.01 µM under setting [2].
Regarding `Nc1ncc(-c2ccc(S(=O)(=O)NC3CC3)cc2)nc1-c1ccc2c(c1)NCCNC2=O` [4-(5-amino-6-(5-oxo-2,3,4,5-tetrahydro-1H-benzo[e][1,4]diazepin-8-yl)pyrazin-2-yl)-N-cyclopropylbenzenesulfonamide], the IC50 reads like this: under setting [1], less than 0.01 µM; under setting [2], less than 0.01 µM.
Regarding `Cc1cc(-c2cnc(N)c(-c3ccc4c(c3)OCCNC4=O)n2)ccc1S(=O)(=O)NC1CC1` [4-(5-amino-6-(5-oxo-2,3,4,5-tetrahydrobenzo[f][1,4]oxazepin-8-yl)pyrazin-2-yl)-N-cyclopropyl-2-methylbenzenesulfonamide], the IC50 by setting is: under setting [1], less than 0.05 µM; under setting [2], less than 0.01 µM.
On the same counts, the results for `CN(C1CC1)S(=O)(=O)c1ccc(-c2cnc(N)c(-c3ccc4c(c3)OCCNC4=O)n2)cc1` [4-(5-amino-6-(5-oxo-2,3,4,5-tetrahydrobenzo[f][1,4]oxazepin-8-yl)pyrazin-2-yl)-N-cyclopropyl-N-methylbenzenesulfonamide] are less than 0.01 µM and less than 0.01 µM.
For `Nc1ncc(-c2ccc(S(=O)(=O)NC3CC3)cc2)nc1-c1ccc2c(c1)OCCNC2=O` [4-(5-amino-6-(5-oxo-2,3,4,5-tetrahydrobenzo[f][1,4]oxazepin-8-yl)pyrazin-2-yl)-N-cyclopropylbenzenesulfonamide] the same measures were less than 0.01 µM and less than 0.01 µM.
Regarding `Nc1ncc(-c2ccc(S(=O)(=O)NC3CC3)cc2)nc1-c1ncc(-c2ccccc2)[nH]1` [4-(5-amino-6-(5-phenyl-1H-imidazol-2-yl)pyrazin-2-yl)-N-cyclopropylbenzenesulfonamide], the IC50 under setting [2] is less than 0.05 µM.
With `CN(C1CC1)S(=O)(=O)c1ccc(-c2cnc(N)c(-c3cc4c(cn3)C(=O)NCC4)n2)cc1` [4-(5-amino-6-(8-oxo-5,6,7,8-tetrahydro-2,7-naphthyridin-3-yl)pyrazin-2-yl)-N-cyclopropyl-N-methylbenzenesulfonamide], the IC50 is less than 0.01 µM under setting [1] and less than 0.01 µM under setting [2].
Take `Nc1ncc(-c2ccc(S(=O)(=O)NC3CC3)cc2)nc1-c1cc2c(cn1)C(=O)NCC2` [4-(5-amino-6-(8-oxo-5,6,7,8-tetrahydro-2,7-naphthyridin-3-yl)pyrazin-2-yl)-N-cyclopropylbenzenesulfonamide]: the IC50 is, setting by setting: under setting [1], less than 0.01 µM; under setting [2], less than 0.01 µM.
Turning to `N#Cc1ccc(-c2cnc(N)c(-c3cc4c(cn3)C(=O)NCC4)n2)cc1` [4-(5-amino-6-(8-oxo-5,6,7,8-tetrahydro-2,7-naphthyridin-3-yl)pyrazin-2-yl)benzonitrile], the IC50 is less than 0.01 µM under setting [1] and less than 0.01 µM under setting [2].
Regarding `CN(C1CC1)S(=O)(=O)c1ccc(-c2cnc(N)c(C#Cc3ccnc(O)c3)n2)cc1` [4-(5-amino-6-((2-hydroxypyridin-4-yl)ethynyl)pyrazin-2-yl)-N-cyclopropyl-N-methylbenzenesulfonamide], the IC50 was less than 0.15 µM under setting [1] and less than 0.05 µM under setting [2].
For `CC(=O)N1CC(C)(C)c2cc(-c3nc(-c4ccc(S(=O)(=O)N(C)C5CC5)cc4)cnc3N)ccc21` [4-(6-(1-acetyl-3,3-dimethylindolin-5-yl)-5-aminopyrazin-2-yl)-N-cyclopropyl-N-methylbenzenesulfonamide] the same measures were less than 0.05 µM and less than 0.01 µM.
On the same counts, the results for `CN(C1CC1)S(=O)(=O)c1ccc(-c2cc(-c3ccc4c(c3)CCNC4=O)c(N)nn2)cc1` [4-(6-amino-5-(1-oxo-1,2,3,4-tetrahydroisoquinolin-6-yl)pyridazin-3-yl)-N-cyclopropyl-N-methylbenzenesulfonamide] are less than 0.05 µM and less than 0.01 µM.
Take `Nc1ncc(-c2ccc(S(=O)(=O)NC3CC3)c(Cl)c2)cc1-c1ccc2c(c1)CCNC2=O` [4-(6-amino-5-(1-oxo-1,2,3,4-tetrahydroisoquinolin-6-yl)pyridin-3-yl)-2-chloro-N-cyclopropylbenzenesulfonamide]: the IC50 under setting [1] is less than 0.01 µM and the IC50 under setting [2] was less than 0.01 µM.
In the case of `Nc1ncc(-c2ccc(S(=O)(=O)N(CC(F)(F)F)C3CCC3)cc2)cc1-c1ccc2c(c1)CCNC2=O` [4-(6-amino-5-(1-oxo-1,2,3,4-tetrahydroisoquinolin-6-yl)pyridin-3-yl)-N-cyclobutyl-N-(2,2,2-trifluoroethyl)benzenesulfonamide], the IC50 by setting is: under setting [1], less than 0.05 µM; under setting [2], less than 0.01 µM.
For `Nc1ncc(-c2ccc(S(=O)(=O)NC3CCC3)cc2)cc1-c1ccc2c(c1)CCNC2=O` [4-(6-amino-5-(1-oxo-1,2,3,4-tetrahydroisoquinolin-6-yl)pyridin-3-yl)-N-cyclobutylbenzenesulfonamide] the same measures were less than 0.01 µM and less than 0.01 µM.
For the compound `Nc1ncc(-c2ccc(S(=O)(=O)NC3CC3)c(F)c2)cc1-c1ccc2c(c1)CCNC2=O` [4-(6-amino-5-(1-oxo-1,2,3,4-tetrahydroisoquinolin-6-yl)pyridin-3-yl)-N-cyclopropyl-2-fluorobenzenesulfonamide], the IC50 runs as follows: under setting [1], less than 0.01 µM; under setting [2], less than 0.01 µM.
